Patent US9144613B2, “Halogenated phenols for diagnostics, antioxidant protection and drug delivery” (priority 2012, dated 2015)

Key:
spontaneous tumors = details: 10 mg by gavage; X-ray imaging about two hours after; mice showing spontaneous tumors; control images of same mice prior to treatment did not show foci
Source text: As described above, oxidative foci or tumors may be identified by X-ray radiographic imaging of animals following administration of an indigogenic compound of the present invention. The radio-opaque indigo-like product formed and deposited with residence time in FROS-containing tumor tissues may then be detected.
In this example, female C3H/HeN mice were obtained as multiparous retired breeders (i.e., after 3 to 4 litters) that were positive for a mammary tumor virus. See, e.g., Sellitti, D. F., Tseng, Y-C., and Latham, K. R., “Effect of 3,5,3′-Triiodo-L-thyronine on the Incidence and Growth Kinetics of Spontaneous Mammary Tumors in C3H/HeN Mice,” Cancer Research, 41: 5015-19 (1981), the entire contents and disclosure of which are incorporated herein by reference. Mice showing spontaneous tumors were given 10 mg of 5-Iodo-Indoxyl-3′,5′-Diiodo-4′-hydroxy ether substrate (product of Example 4) by gavage. These mice were then subjected to X-ray imaging of the tumors about two hours after being fed the iodo-indigogenic compound. […] When developed, the X-ray film appears dark in areas where more transmission occurs and light in areas where less transmission occurs.

[1] = tested on: sites of the wound or injury; details: mice with small injuries or wounds (cuts, scratches); data not shown
[2] = Cleavage of the C—C bond during the oxidative dehalogenation reaction; format: physicochemical
Source text: It has also been discovered that other types of bonds or linkages may also be cleaved by oxidative or free radical-mediated dehalogenation of the phenol ring. For example, as described herein, it has now been observed that a carbonyl linkage, a nitrogen linkage, a sulfinyl linkage and possibly a C—C bond on the phenol ring may also be cleaved by the oxidative dehalogenation reaction. These bonds are also considered stable, and their cleavage in connection with the dehalogenation reaction is surprising as well. One caveat with the C—C bond or linkage is that depending on the particular starting compound structure and the substituents or groups attached to the halogenated phenol ring via the C—C bond, the C—C bond or linkage may or may not be generally cleaved during or following the dehalogenation reaction (see below). […] However, other compounds do become cleaved. It is important to note that whether a C—C bond of a particular starting compound is “cleavable,” or becomes cleaved, may not be all-or-nothing (i.e., the C—C bond may be considered non-cleavable even though a small or minute amount of cleavage may occur, and vice versa). Thus, the amount or percentage of cleavage may be partial with the alternatively cleaved or non-cleaved product being possibly undetected or minute. […]

[3] = Spontaneous dehalogenation and ether cleavage in buffered aqueous solution exposed to sunlight; format: physicochemical; details: about 1 mM in carbonate buffer (pH 8.0), exposed to sunlight for about one hour; clear yellow/orange solution formed
Source text: In contrast to reductive deiodination, spontaneous dehalogenation (e.g., deiodination) of a halogentated phenol ring in the presence of an oxidizing agent(s) and/or free radical(s) with cleavage of a chemical linkage, such as an ether linkage, etc., between the phenol ring and a conjugated compound has not been described. According to the present invention, cleavage of the ether linkage between the aromatic rings of thyroid hormone may form visibly colored quinone and iodine-containing products in buffered aqueous solutions in vitro, and this ether cleavage reaction may be accelerated under basic pH conditions and with exposure to ionizing radiation or light. These conditions favor the increased formation of oxidizing agents and/or free radicals, which are believed to promote the reaction. […] A quinone and an iodotyrosine product are also formed by cleavage of the ether linkage during the reaction. According to embodiments of the present invention, a spontaneous reaction of dehalogenation and cleavage of a chemical bond is proposed for the targeted delivery and release of a drug compound at or to sites of inflammation or disease. This spontaneous reaction is further proposed as a basis for scavenging free radicals and/or oxidative agents (FROS) as well as for the creation of a detectable compound(s) that may be used for diagnostic purposes.

With `Oc1c(I)cc(Oc2c[nH]c3ccc(I)cc23)cc1I` [Example 4, 5-Iodo-Indolyl-3′,5′-Diiodo-4′-hydroxyl-p-Phenol Ether] the “radio-opaque tumor regions or foci by X-ray (formation and deposit of indigo-like product in oxidative tumor tissues)” value (spontaneous tumors) was “radio-opaque tumor regions or foci” and the “X-ray detection at sites of wound or injury” value [1] was “strong detection was observed”.
In the case of `N[C@@H](Cc1ccc(O)c(I)c1)C(=O)O` [MIT, 3-iodo-4-hydroxy-L-phenylalanine], the “cleavage of C—C bond with the dehalogenation reaction” value [2] is reported as “generally not to be cleaved”.
In the case of `N[C@@H](Cc1cc(I)c(Oc2cc(I)c(O)c(I)c2)c(I)c1)C(=O)O` [thyroxine], the “cleavage of ether linkage with release of iodide” value [3] is reported as “the ether linkage is broken spontaneously”.
